In the NIST ThermoML archive (doi:10.1021/je9005823):

What was measured:
[1] = xn = mol fraction of the nth substance listed; details: 298.15 K, 101 kPa, Liquid; for viscosity: Capillary tube (Ostwald / Ubbelohde) method
[2] = refractive index (Na D-line) (dimensionless); xn = mol fraction of the nth substance listed; details: 298.15 K, 101 kPa, Liquid
[3] = 298.15 K, 101 kPa, Liquid; for viscosity: Capillary tube (Ostwald / Ubbelohde) method
[4] = refractive index (Na D-line) (dimensionless); details: 298.15 K; 101.33 kPa; Liquid

CC(=O)c1ccccc1 [acetophenone] + CCCC(C)O
Details	mass density, [1] [kg/m3]	refractive index, [2]	viscosity, [1] [mPa·s]
x1 = 0.0917	826.19	1.4627	2.767
x1 = 0.1629	842.36	1.4972	2.314
x1 = 0.2502	862.04	1.5257	1.875
x1 = 0.3416	882.41	1.5487	1.626
x1 = 0.4371	903.49	–	1.502
x1 = 0.5387	925.71	–	1.489
x1 = 0.6442	948.51	–	1.534
x1 = 0.7547	972.08	–	1.605
x1 = 0.8716	996.7	1.547	1.658
x1 = 0.949	1012.77	1.539	1.669
x1 = 1	1023.3	1.5308	1.678

CCC(C)O (stereo unspecified) [butan-2-ol] + CC(=O)c1ccccc1
x2 = 0
Details	mass density [kg/m3]	refractive index	viscosity [mPa·s]
[1]	802.56	–	3.132
[2]	–	1.3946	–

CC(=O)c1ccccc1 [acetophenone] + CCC(C)O
Details	mass density, [1] [kg/m3]	refractive index, [2]	viscosity, [1] [mPa·s]
x1 = 0.1031	830.43	1.4255	2.345
x1 = 0.1635	846.12	1.4443	2.009
x1 = 0.2517	868.13	1.4669	1.705
x1 = 0.3422	889.8	1.4877	1.544
x1 = 0.4361	911.31	1.5044	1.461
x1 = 0.533	932.56	1.5189	1.46
x1 = 0.6461	956.27	1.5314	1.506
x1 = 0.7517	977.34	1.5367	1.562
x1 = 0.8675	999.34	1.5351	1.617
x1 = 0.9462	1013.72	1.5336	1.65
x1 = 1	1023.3	1.5308	1.678

CC(=O)c1ccccc1 [acetophenone]
Details	mass density [kg/m3]	refractive index	viscosity [mPa·s]
[3]	1023.3	–	1.678
[4]	–	1.5308	–

CCCC(C)O (stereo unspecified) [pentan-2-ol]
Details	mass density [kg/m3]	refractive index	viscosity [mPa·s]
[3]	805.24	–	3.478
[4]	–	1.4045	–

CC(C)O [propan-2-ol] + CC(=O)c1ccccc1
x2 = 0
Details	mass density [kg/m3]	refractive index	viscosity [mPa·s]
[1]	780.98	–	2.044
[2]	–	1.3745	–

CCCCCC(C)O (stereo unspecified) [2-heptanol] + CC(=O)c1ccccc1
Details	mass density, [1] [kg/m3]	refractive index, [2]	viscosity, [1] [mPa·s]
x2 = 0	813.33	1.4188	5.33
x2 = 0.0913	829.12	1.4489	4.282
x2 = 0.1631	841.87	1.4748	3.572
x2 = 0.2637	860.39	1.5079	2.763
x2 = 0.3425	875.43	1.5298	2.296
x2 = 0.4374	894.2	1.5535	1.908
x2 = 0.5387	915.07	–	1.662
x2 = 0.6446	937.92	–	1.55
x2 = 0.7571	963.35	–	1.548
x2 = 0.8733	991.14	–	1.606
x2 = 0.9542	1011.38	1.5486	1.651

CCCCCC(C)O (stereo unspecified) [2-heptanol]
Details	mass density [kg/m3]	refractive index	viscosity [mPa·s]
[3]	813.33	–	5.33
[4]	–	1.4188	–
